From publication PMC7012052, “Discovery of antimicrobial compounds targeting bacterial type FAD synthetases” (Journal of Enzyme Inhibition and Medicinal Chemistry, 2017)
Converted amounts (≈) assume the structure as drawn. Where a name gives a salt, the structure may show the parent alone. Read-outs that look alike come from different tables or passages of the source. Marks after values point to notes of the source that are not given here.

Legend:
CaFADS FMNAT activity = target: T1, CaFADS FMNAT activity (Corynebacterium ammoniagenes, UniProt Q59263); test: FMNAT activity of CaFADS: residual activity, IC50, inhibition mechanism (HPLC); format: biochemical; settings: for Inhibition mechanism / Ki: CaFADS FMNAT; for Ki: global Lineweaver–Burk fit; for remaining activity at 250 µM: pH 7, read-out: % Residual FMNAT activity; for remaining activity at 50 µM: read-out: Residual activity (FMNAT)
T1 construct: Recombinant CaFADS was overexpressed in BL21 (DE3) E. coli cells and purified as previously described; made in house; host or cells: E. coli BL21 (DE3)
T1 sequence (Q59263 whole entry): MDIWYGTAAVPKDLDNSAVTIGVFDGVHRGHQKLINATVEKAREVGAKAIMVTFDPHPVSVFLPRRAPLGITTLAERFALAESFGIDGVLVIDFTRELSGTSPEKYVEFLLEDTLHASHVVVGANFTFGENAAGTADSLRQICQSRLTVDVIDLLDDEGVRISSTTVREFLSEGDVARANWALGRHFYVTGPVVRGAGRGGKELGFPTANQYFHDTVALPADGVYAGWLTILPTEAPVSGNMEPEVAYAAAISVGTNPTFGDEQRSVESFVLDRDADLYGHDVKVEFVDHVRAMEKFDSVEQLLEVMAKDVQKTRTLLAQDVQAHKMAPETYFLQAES
Description: (§1) Then, the RFK and FMNAT reactions were individually assayed in the presence of the HTS hits at 25 °C. Reaction mixtures contained 50 µM ATP, 5 µM RF, 0.4 µM CaFADS in 20 mM PIPES, pH 7.0, 0.8 mM MgCl2, when assaying the RFK activity, and 50 µM ATP, 10 µM FMN, 0.4 µM CaFADS in 20 mM PIPES, pH 7.0, 10 mM MgCl2 when measuring the FMNAT reaction. […] Finally, reactions were stopped by boiling the samples at 100 °C for 5 min, and the precipitated protein was eliminated through centrifugation. The transformation of RF into FMN or FAD was evaluated through flavins separation by HPLC, as previously described. […] When assaying the HTS hits against the FMNAT activity of SpnFADS, similar conditions were used but samples contained 3 mM sodium dithionite to maintain the flavin in its reduced state. Data were processed as previously reported. All the experiments were performed in triplicate.
(§2) Experiments were performed and analysed through HPLC as described above. Positive controls (without any hit compound) were included in every reaction set. DMSO concentration was kept at 2.5% in all samples. All the experiments were performed in triplicate.
All the experiments were carried out in 20 mM PIPES, 10 mM MgCl2, pH 7.0, 2.5% DMSO at 25 °C, being the final reaction volume 500 µl. The reactions were initiated by addition of CaFADS at a final concentration of ∼40 nM, followed by 1 min incubation. The flavin composition of the supernatant was analysed as previously described. All the experiments were performed in triplicate. The effect of the inhibitors on Km and Vmax was determined by fitting the data sets to the Michaelis–Menten model. Additionally, data were globally fit to Lineweaver–Burk equations for competitive, uncompetitive, non-competitive or mixed inhibition, yielding Ki, as well as Ki′ when applying, for each compound (Equations (1–4), respectively).

[1] = tested on: M. tuberculosis ATCC 27,294; test: MIC by resazurin microplate assay (broth microdilution); format: cell-based, Mycobacterium tuberculosis
CaFADS RFK activity = target: T2, CaFADS RFK activity (Corynebacterium ammoniagenes, UniProt Q59263); test: RFK activity of CaFADS in the presence of HTS hits (flavins separated by HPLC); format: biochemical; settings: pH 7, read-out: % Residual RFK activity
T2 construct: Recombinant CaFADS was overexpressed in BL21 (DE3) E. coli cells and purified as previously described; made in house; host or cells: E. coli BL21 (DE3)
T2 sequence (Q59263 whole entry): as above
Description: as §1

SpnFADS FMNAT activity = SpnFADS FMNAT activity (Streptococcus pneumoniae, UniProt A0A0H2UPY5); test: biochemical; settings: for activity at 100 µM / remaining activity at 100 µM: read-out: FMNAT activity Res. activity
SpnFADS FMNAT activity, sequence (A0A0H2UPY5 entry or part of it): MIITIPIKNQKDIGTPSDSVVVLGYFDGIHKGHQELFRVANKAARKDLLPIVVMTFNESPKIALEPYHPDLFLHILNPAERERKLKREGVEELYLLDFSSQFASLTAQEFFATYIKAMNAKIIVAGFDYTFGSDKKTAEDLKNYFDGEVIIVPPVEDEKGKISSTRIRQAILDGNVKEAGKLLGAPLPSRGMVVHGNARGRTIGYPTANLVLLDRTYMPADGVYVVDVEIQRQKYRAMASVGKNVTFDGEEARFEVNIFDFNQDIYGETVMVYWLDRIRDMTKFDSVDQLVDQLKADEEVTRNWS
Description: as §1, §2

SpnFADS RFK activity = SpnFADS RFK activity (Streptococcus pneumoniae, UniProt A0A0H2UPY5); test: biochemical; settings: for activity at 100 µM / remaining activity at 100 µM: read-out: RFK activity Res. activity
SpnFADS RFK activity, sequence (A0A0H2UPY5 entry or part of it): as above
Description: as §1, §2

CaFADS = target: T3, CaFADS (Corynebacterium ammoniagenes, UniProt Q59263); test: Isothermal titration calorimetry (ITC) of hits binding to CaFADS; settings: ITC 25 °C
T3 construct: Recombinant CaFADS was overexpressed in BL21 (DE3) E. coli cells and purified as previously described; made in house; host or cells: E. coli BL21 (DE3)
T3 sequence (Q59263 whole entry): as the sequence (Q59263 whole entry) above
Description: ITC experiments were performed to characterise the protein’s affinity for the selected compounds, as also the thermodynamic parameters that drive the interaction. Experiments were carried out in an AutoITC200 (MicroCal) thermostated at 25 °C. In these experiments, ∼400 µM of each compound were used to titrate ∼25 µM CaFADS contained in a 200 µL cell. However, when saturation of the protein was not reached, higher concentrations of compounds were employed. The titrations were performed by stepwise injections of the titrating compound. Up to 19 injections of 2 µl were added to the cell sample and mixed using a 1000 rpm stirrer syringe. The compounds and the protein were dissolved in 20 mM PIPES, pH 7.0, 10 mM MgCl2 and degassed prior to titration. DMSO was added to the protein and ligand samples, until reach a final concentration of 3%. The association constant (Ka), the enthalpy variation (ΔH) and the binding stoichiometry (N), were obtained through non-lineal regression of the data to a model for one or two independent binding sites, implemented in Origin 7.0 (OriginLab) as previously described[27]^,[29]. The entropic contribution (−TΔS), the Gibbs free energy (ΔG) and the dissociation constant (Kd) were obtained through essential thermodynamic equations.

[2] = tested on: C. ammoniagenes ATCC 6872; test: MIC by resazurin microplate assay (broth microdilution); format: cell-based, Corynebacterium ammoniagenes; settings: Corynebacterium ammoniagenes, ATCC6872, 16 h
S. pneumoniae ATCC 49619 = test: as above; format: cell-based, Streptococcus pneumoniae
[3] = saturating ATP (regarding the FMN substrate)
[4] = saturating FMN (regarding the ATP substrate)
[5] = saturating ATP, varying FMN, inhibitor 0.2 μM
[6] = saturating ATP, varying FMN, inhibitor […]
[7] = saturating FMN, varying ATP, inhibitor 0.2 μM
[8] = saturating FMN, varying ATP, inhibitor 0.4 μM
[9] = saturating FMN, varying ATP, inhibitor […]
[10] = Mycobacterium tuberculosis, ATCC27, 144 h; read-out: Minimal inhibitory concentration (MIC) M. tuberculosis
[11] = SpnFADS, 100 μM of each compound, 25 °C, n = 3, mean ± SD
[12] = SpnFADS, compounds assayed 0–100 μM, 25 °C, read-out: FMNAT activity IC50
[13] = SpnFADS, compounds assayed 0–100 μM, 25 °C, read-out: RFK activity IC50
[14] = for 24: Site 1–2, average value where N ≈ 2
[15] = read-out: Minimal inhibitory concentration (MIC) C. ammoniagenes
[16] = Streptococcus pneumoniae, ATCC49619, 10 h; read-out: Minimal inhibitory concentration (MIC) S. pneumoniae

Row | Compound | IC50 (CaFADS FMNAT activity) | Inhibition mechanism (CaFADS FMNAT activity; [3]) | Inhibition mechanism (CaFADS FMNAT activity; [4]) | Ki (CaFADS FMNAT activity; saturating ATP, varying FMN) | Ki (CaFADS FMNAT activity; saturating FMN, varying ATP) | remaining activity at 250 µM (CaFADS FMNAT activity) | remaining activity at 50 µM (CaFADS FMNAT activity) | apparent kcat (CaFADS FMNAT activity; [5]) | apparent kcat (CaFADS FMNAT activity; [6]) | apparent kcat (CaFADS FMNAT activity; [7]) | apparent kcat (CaFADS FMNAT activity; [8]) | apparent kcat (CaFADS FMNAT activity; [9]) | MIC [1, 10] | remaining activity at 250 µM (CaFADS RFK activity) | activity at 100 µM (SpnFADS FMNAT activity; [11]) | IC50 (SpnFADS FMNAT activity; [12]) | IC50 (SpnFADS RFK activity; [13]) | activity at 100 µM (SpnFADS RFK activity) | MIC [2, 15] | MIC (S. pneumoniae ATCC 49619; [16]) | other results
1 | COc1cc(-c2ccc(/N=N/c3ccc4c(S(=O)(=O)O)cc(S(=O)(=O)O)c(N)c4c3O)c(OC)c2)ccc1/N=N/c1ccc2c(S(=O)(=O)O)cc(S(=O)(=O)O)c(N)c2c1O [HTS hit 24, Chicago sky blue 6B] | 0.4 ± 0.1 µM | Non-competitive | Uncompetitive | 0.07 ± 0.01 µM | 0.08 ± 0.03 µM | ≤ 5% | 3.6 ± 0.2% | 0.163 ± 0.0217 s⁻¹ | 0.405 ± 0.0683 s⁻¹ | 0.0717 ± 0.0067 s⁻¹ | 0.03 ± 0.0017 s⁻¹ | 0.12 ± 0.0067 s⁻¹ | 16 to 32 µM (≈ 14.5 to 29 µg/mL) | ≥ 75% | 0% | 70 ± 6 µM | > 100 µM | 84 ± 9% | 16 to 32 µM (≈ 14.5 to 29 µg/mL) | > 64 µM | apparent kcat (CaFADS FMNAT activity; saturating ATP, varying FMN, inhibitor 0.4 μM): 0.0933 ± 0.01 s⁻¹; apparent kcat (CaFADS FMNAT activity; saturating ATP, varying FMN, inhibitor 0.6 μM): 0.095 ± 0.0217 s⁻¹; apparent kcat (CaFADS FMNAT activity; saturating FMN, varying ATP, inhibitor 0.04 μM): 0.375 ± 0.08 s⁻¹; N (binding stoichiometry) (CaFADS; 3% DMSO, for 24: Site 1–2): ≈ 2; ΔG (CaFADS; Site 3): -5.2 ± 0.7 kcal/mol; ΔH (CaFADS; Site 3): 18.4 ± 2.2 kcal/mol; −TΔS (CaFADS; Site 3): -23.6 ± 1.9 kcal/mol; N (binding stoichiometry) (CaFADS; Site 3 (low affinity site)): ≈ 1; ΔG (CaFADS; [14]): −8.1 ± 1.0^a kcal/mol; ΔH (CaFADS; [14]): −4.2 ± 0.5^a kcal/mol; −TΔS (CaFADS; [14]): −3.9 ± 0.5^a kcal/mol; Kd (CaFADS; Kd, 3% DMSO, for 24: Site 1–2, average value for two hit molecules where N ≈ 2): 1.1 ± 0.1 µM; Kd (CaFADS; Kd, Site 3 (low affinity site)): 161 ± 20 µM
2 | CC(C)n1c(/C=C/C(O)CC(O)CC(=O)O)c(-c2ccc(F)cc2)c2ccccc21 (stereo not shown) [HTS hit 37, fluvastatin sodium salt] |  |  |  |  |  | ≤ 5% |  |  |  |  |  |  | > 64 µM | ≤ 5% | 0% | 7 ± 1 µM |  | 96 ± 10% | > 64 µM | > 64 µM | IC50 (SpnFADS RFK activity): > 100 µM
3 | Cc1cc2c(C(C)C)c(O)c(O)c(C=O)c2c(O)c1-c1c(C)cc2c(C(C)C)c(O)c(O)c(C=O)c2c1O [HTS hit 27, gossypol] | 0.5 ± 0.1 µM | Non-competitive | Competitive | 0.08 ± 0.01 µM | 0.06 ± 0.01 µM | ≤ 5% | 6.9 ± 0.8% | 0.252 ± 0.025 s⁻¹ | 0.167 ± 0.013 s⁻¹ | 0.37 ± 0.0233 s⁻¹ | 0.302 ± 0.0267 s⁻¹ | 0.285 ± 0.055 s⁻¹ |  | ≥ 75% |  |  |  |  |  |  | apparent kcat (CaFADS FMNAT activity; saturating ATP, varying FMN, inhibitor 0.05 μM): 0.36 ± 0.0483 s⁻¹; apparent kcat (CaFADS FMNAT activity; saturating ATP, varying FMN, inhibitor 0.1 μM): 0.268 ± 0.0283 s⁻¹; apparent kcat (CaFADS FMNAT activity; saturating ATP, varying FMN, inhibitor 1 μM): 0.108 ± 0.0033 s⁻¹; apparent kcat (CaFADS FMNAT activity; saturating FMN, varying ATP, inhibitor 0.1 μM): 0.38 ± 0.0217 s⁻¹; apparent kcat (CaFADS FMNAT activity; saturating FMN, varying ATP, inhibitor 1 μM): 0.208 ± 0.0083 s⁻¹; MIC ([1]; Mycobacterium tuberculosis, ATCC27, 144 h, read-out: Minimal inhibitory concentration (MIC) M. tuberculosis): > 64 µM; IC50 (SpnFADS FMNAT activity): 51 ± 6 µM; remaining activity at 100 µM (SpnFADS FMNAT activity): 0%; IC50 (SpnFADS RFK activity; RFK activity IC50, SpnFADS, compounds assayed 0–100 μM, 25 °C): 6 ± 1 µM; remaining activity at 100 µM (SpnFADS RFK activity): 25 ± 4%; N (binding stoichiometry) (CaFADS; 3% DMSO, for 24: Site 1–2): ≈ 2; Kd (CaFADS; 3% DMSO, for 24: Site 1–2, average value for two hit molecules where N ≈ 2, read-out: Kd): 0.7 ± 0.07 µM; ΔG (CaFADS; [14]): −8.4 ± 0.9^a kcal/mol; ΔH (CaFADS; [14]): −3.1 ± 0.1^a kcal/mol; −TΔS (CaFADS; [14]): −5.3 ± 0.4^a kcal/mol; MIC ([2]; read-out: Minimal inhibitory concentration (MIC) C. ammoniagenes, assayed 0.125–64 μM, 16 h at 37 °C, BHI): ~64 µM (≈ 33.2 µg/mL); MIC (S. pneumoniae ATCC 49619; Streptococcus pneumoniae, ATCC49619, 10 h, read-out: Minimal inhibitory concentration (MIC) S. pneumoniae): > 64 µM
4 | Cc1c(Cl)cccc1Nc1ccccc1C(=O)O [HTS hit 2] | 8.9 ± 1 µM |  |  |  |  | ≤ 5% | 41.1 ± 5.2% |  |  |  |  |  | > 64 µM | ≥ 75% |  |  | > 100 µM |  | > 64 µM | > 64 µM | remaining activity at 100 µM (SpnFADS FMNAT activity; [11]): 100 ± 12%; remaining activity at 100 µM (SpnFADS RFK activity): 78 ± 10%
